Assay results from patent US20210155671A1 (priority 2019, published 2021).

Key:
CD20 = CD20 (Homo sapiens, UniProt P11836); conditions: at 37° C.; cited from earlier work
Raji = type: cell-based
SU-DHL-4 = type: cell-based
Daudi = type: cell-based
HBL-1 = type: cell-based
lymphoma (Daudi) cells = type: cell-based
Procedure: The cytotoxicity of Molecule 001 in combination with lenalidomide was also tested in vitro, in lymphoma (Daudi) cells. […] Following this, Molecule 001 was added and viability was measured after an additional 3 days, using the Promega® Cell Titer-Gb® assay (FIG. 19C).

[1] = test system: Burkitt's lymphoma (ST-486) cells; type: cell-based; conditions: 72 hours
Procedure: The cytotoxicity of Molecule 001 in combination with lenalidomide was also tested in Burkitt's lymphoma (ST-486) cells. The cells were incubated with Molecule 001 only, lenalidomide only, or a combination of Molecule 001 and lenalidomide. Cell viability was measured 72 hours after treatment using the Promega® Cell TiterGlo® assay (FIG. 19E).

CD20, sequence (P11836 whole entry): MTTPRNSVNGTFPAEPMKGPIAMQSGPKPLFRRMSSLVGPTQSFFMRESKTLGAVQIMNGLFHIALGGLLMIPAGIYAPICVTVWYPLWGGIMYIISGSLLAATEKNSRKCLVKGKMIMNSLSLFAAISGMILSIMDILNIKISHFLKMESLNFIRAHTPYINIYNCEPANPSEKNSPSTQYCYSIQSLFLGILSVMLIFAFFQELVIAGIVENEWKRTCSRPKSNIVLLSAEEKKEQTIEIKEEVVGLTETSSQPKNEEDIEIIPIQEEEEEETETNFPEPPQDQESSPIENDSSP

For rituximab, the “time to maximal cellular internalization” value (CD20) is listed as 16 to 18 h.
With `CC[C@]1(O)C[C@H]2CN(CCc3c([nH]c4ccccc34)[C@@](C(=O)OC)(c3cc4c(cc3OC)N(C=O)[C@H]3[C@@](O)(C(=O)OC)[C@H](OC(C)=O)[C@]5(CC)C=CCN6CC[C@]43[C@@H]65)C2)C1` [Vincristine] the “In vitro responses to Molecule 001 in combination with chemotherapy” value (from here on “In vitro responses”) (Raji) was “Synergistic”.
In the case of `Nc1ccn([C@@H]2O[C@H](CO)[C@@H](O)C2(F)F)c(=O)n1` [Gemcitabine], the “In vitro responses” value (Raji) is reported as “Synergistic”.
For `Cn1c(CCCC(=O)O)nc2cc(N(CCCl)CCCl)ccc21` [Bendamustine], the “In vitro responses” value (SU-DHL-4) was “Synergistic”, the “In vitro responses” value (Daudi) was “Synergistic” and the “In vitro responses” value (HBL-1) was “Synergistic”.
In the case of `Nc1cccc2c1CN(C1CCC(=O)NC1=O)C2=O` (stereo not shown) [lenalidomide], the “toxicity of Molecule 001 on cells pre-treated with lenalidomide (isobologram)” value (lymphoma (Daudi) cells; Daudi cells pre-treated with lenalidomide for 24 hours, then Molecule 001, viability after additional 3 days) is reported as “synergistic toxicity”, the “potency of the combination of Molecule 001 and LEN against lymphoma cells” value (lymphoma (Daudi) cells; versus either agent alone) is reported as “significantly greater potency against lymphoma cells than either agent alone” and the “effect of lenalidomide on the activity of Molecule 001” value [1] is reported as “no effect on the activity of Molecule 001”. The “effect of lenalidomide on cell viability” value ([1]; concentrations used in this assay) was “little effect on cell viability”.
For `N.N.[Cl][Pt][Cl]` [Cisplatin], the “In vitro responses” value (Raji) was “Synergistic”, the “In vitro responses” value (SU-DHL-4) was “Mixed” and the “In vitro responses” value (Daudi) was “Mixed”.
For `COc1cccc2c1C(=O)c1c(O)c3c(c(O)c1C2=O)C[C@@](O)(C(=O)CO)C[C@@H]3O[C@H]1C[C@H](N)[C@H](O)[C@H](C)O1` [Doxorubicin], the “In vitro responses” value (Raji) was “Synergistic”, the “In vitro responses” value (Daudi) was “Mixed” and the “In vitro responses” value (HBL-1) was “Synergistic”.
